Experimental data taken from patent US9102678B2, “Compounds and methods for inhibiting mitotic progression” (Millennium Pharmaceuticals, Inc., priority 2004, dated 2015).

Target: T1, recombinant murine Aurora A enzyme (Mus musculus, UniProt P97477)
T1 construct: hexahistidine (His6) (N); made in house; host or cells: insect cells, baculovirus (Bac-to-Bac, Invitrogen)
Assay: Aurora A DELFIA Kinase Assay
Format: biochemical
Conditions: mouse Aurora A, 250 μM ATP; threshold less than or equal to 100 nM; read-out: IC50

T1 sequence (P97477 whole entry): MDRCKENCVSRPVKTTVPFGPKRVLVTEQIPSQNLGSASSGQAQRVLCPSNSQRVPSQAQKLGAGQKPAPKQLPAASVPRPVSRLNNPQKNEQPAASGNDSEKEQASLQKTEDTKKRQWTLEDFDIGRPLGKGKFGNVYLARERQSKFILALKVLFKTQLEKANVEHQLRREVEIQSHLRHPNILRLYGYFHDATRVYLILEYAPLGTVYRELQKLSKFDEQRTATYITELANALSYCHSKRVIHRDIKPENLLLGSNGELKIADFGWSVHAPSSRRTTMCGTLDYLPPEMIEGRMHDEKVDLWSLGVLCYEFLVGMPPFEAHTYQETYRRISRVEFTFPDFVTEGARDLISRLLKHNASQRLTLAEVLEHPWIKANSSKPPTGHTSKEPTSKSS

NC1CN(C(=O)c2ccc(Nc3ncc4c(n3)-c3ccc(Cl)cc3C(c3ccccc3C(F)(F)F)=NC4)cc2)C1 [Compound I-296, N-{4-[(3-aminoazetidin-1-yl)carbonyl]phenyl}-9-chloro-7-[2-(trifluoromethyl)phenyl]-5H-pyrimido[5,4-d][2]benzazepin-2-amine]
IC50: ≤ 100 nM

CN(C)CCCN(C)C(=O)c1ccc(Nc2ncc3c(n2)-c2ccc(Cl)cc2C(c2ccccc2F)=NC3)cc1 [Compound I-7, 4-[9-Chloro-7-(2-fluoro-phenyl)-5H-benzo[c]pyrimido[4,5-e]azepin-2-ylamino]-N-(3-dimethylamino-propyl)-N-methyl-benzamide]
IC50: ≤ 100 nM

CN1CCN(C(=O)Nc2ccc(Nc3ncc4c(n3)-c3ccc(Cl)cc3C(c3c(F)cccc3F)=NC4)cc2)CC1 [Compound I-280, 4-Methyl-piperazine-1-carboxylic acid {4-[9-chloro-7-(2,6-difluoro-phenyl)-5H-benzo[c]pyrimido[4,5-e]azepin-2-ylamino]-phenyl}-amide]
IC50: ≤ 100 nM

CN1CCN(C(=O)c2ccc(Nc3ncc4c(n3)-c3ccc(Cl)cc3C(c3ccccc3F)=NC4)cc2)CC1 [Compound I-9, {4-[9-Chloro-7-(2-fluoro-phenyl)-5H-benzo[c]pyrimido[4,5-e]azepin-2-ylamino]-phenyl}-(4-methyl-piperazin-1-yl)-methanone]
IC50: ≤ 100 nM

NC1CCCN(C(=O)c2ccc(Nc3ncc4c(n3)-c3ccc(Cl)cc3C(c3c(F)cccc3F)=NC4)cc2)C1 (stereo not drawn) [Compound I-221]
IC50: ≤ 100 nM

O=C(O)c1ccc(Nc2ncc3c(n2)-c2ccc(F)cc2C(c2ccccc2F)=NC3)cc1 [Compound I-57, 4-[9-Fluoro-7-(2-fluoro-phenyl)-5H-benzo[c]pyrimido[4,5-e]azepin-2-ylamino]-benzoic acid]
IC50: ≤ 100 nM

CN(C)C1CCCN(C(=O)c2ccc(Nc3ncc4c(n3)-c3ccc(Cl)cc3C(c3c(F)cccc3F)=NC4)cc2)C1 (stereo not drawn) [Compound I-293, 9-chloro-7-(2,6-difluorophenyl)-N-(4-{[3-(dimethylamino)piperidin-1-yl]carbonyl}phenyl)-5H-pyrimido[5,4-d][2]benzazepin-2-amine]
IC50: ≤ 100 nM

CN(CCc1ccccn1)C(=O)c1ccc(Nc2ncc3c(n2)-c2ccc(Cl)cc2C(c2ccccc2F)=NC3)cc1 [Compound I-160, 4-[9-Chloro-7-(2-fluoro-phenyl)-5H-benzo[c]pyrimido[4,5-e]azepin-2-ylamino]-N-methyl-N-(2-pyridin-2-yl-ethyl)-benzamide]
IC50: ≤ 100 nM

CNC1CN(C(=O)c2cc(Nc3ncc4c(n3)-c3ccc(Cl)cc3C(c3c(F)cccc3F)=NC4)ccc2Cl)C1 [Compound I-291, 9-chloro-N-(4-chloro-3-{[3-(methylamino)azetidin-1-yl]carbonyl}phenyl)-7-(2,6-difluorophenyl)-5H-pyrimido[5,4-d][2]benzazepin-2-amine]
IC50: ≤ 100 nM

CN(C)C1CCN(C(=O)c2ccc(Nc3ncc4c(n3)-c3ccc(Cl)cc3C(c3c(F)cccc3F)=NC4)cc2)CC1 [Compound I-183, {4-[9-Chloro-7-(2,6-difluoro-phenyl)-5H-benzo[c]pyrimido[4,5-e]azepin-2-ylamino]-phenyl}-(4-dimethylamino-piperidin-1-yl)-methanone]
IC50: ≤ 100 nM

NC1CCN(C(=O)c2ccc(Nc3ncc4c(n3)-c3ccc(Cl)cc3C(c3ccccc3C(F)(F)F)=NC4)cc2)C1 (stereo not drawn) [Compound I-289, N-{4-[(3-aminopyrrolidin-1-yl)carbonyl]phenyl}-9-chloro-7-[2-(trifluoromethyl)phenyl]-5H-pyrimido[5,4-d][2]benzazepin-2-amine]
IC50: ≤ 100 nM

CN(C)C1CCN(C(=O)c2ccc(Nc3ncc4c(n3)-c3ccc(Cl)cc3C(c3ccccc3F)=NC4)cc2)CC1 [Compound I-18, {4-[9-Chloro-7-(2-fluoro-phenyl)-5H-benzo[c]pyrimido[4,5-e]azepin-2-ylamino]-phenyl}-(4-dimethylamino-piperidin-1-yl)-methanone]
IC50: ≤ 100 nM

O=C(c1ccc(Nc2ncc3c(n2)-c2ccc(Cl)cc2C(c2ccccc2Cl)=NC3)cc1)N1CCOCC1 [Compound I-28, {4-[9-Chloro-7-(2-chloro-phenyl)-5H-benzo[c]pyrimido[4,5-e]azepin-2-ylamino]-phenyl}-morpholin-4-yl-methanone]
IC50: ≤ 100 nM

CNC(=O)C1(N)CCN(C(=O)c2ccc(Nc3ncc4c(n3)-c3ccc(Cl)cc3C(c3c(F)cccc3F)=NC4)cc2)CC1 [Compound I-341, 4-amino-1-(4-{[9-chloro-7-(2,6-difluorophenyl)-5H-pyrimido[5,4-d][2]benzazepin-2-yl]amino}benzoyl)-N-methylpiperidine-4-carboxamide]
IC50: ≤ 100 nM

CN(C)CCCN1CCN(C(=O)c2ccc(Nc3ncc4c(n3)-c3ccc(Cl)cc3C(c3ccccc3F)=NC4)cc2)CC1 [Compound I-210, 9-chloro-N-[4-({4-[3-(dimethylamino)propyl]piperazin-1-yl}carbonyl)phenyl]-7-(2-fluorophenyl)-5H-pyrimido[5,4-d][2]benzazepin-2-amine]
IC50: ≤ 100 nM

CNC1CCN(C(=O)c2ccc(Nc3ncc4c(n3)-c3ccc(Cl)cc3C(c3c(F)cccc3Cl)=NC4)cc2)C1 (stereo not drawn) [Compound I-327, 9-chloro-7-(2-chloro-6-fluorophenyl)-N-(4-{[3-(methylamino)pyrrolidin-1-yl]carbonyl}phenyl)-5H-pyrimido[5,4-d][2]benzazepin-2-amine]
IC50: ≤ 100 nM

CCCN(CCC)CCN1CCN(C(=O)c2ccc(Nc3ncc4c(n3)-c3ccc(Cl)cc3C(c3ccccc3F)=NC4)cc2)CC1 [Compound I-187, {4-[9-Chloro-7-(2-fluoro-phenyl)-5H-benzo[c]pyrimido[4,5-e]azepin-2-ylamino]-phenyl}-[4-(2-dipropylamino-ethyl)-piperazin-1-yl]-methanone]
IC50: ≤ 100 nM

CNCCN(C)C(=O)c1ccc(Nc2ncc3c(n2)-c2ccc(Cl)cc2C(c2c(F)cccc2OC)=NC3)cc1 [Compound I-254, 4-{[9-chloro-7-(2-fluoro-6-methoxyphenyl)-5H-pyrimido[5,4-d][2]benzazepin-2-yl]amino}-N-methyl-N-[2-(methylamino)ethyl]benzamide]
IC50: ≤ 100 nM

O=C(c1ccc(Nc2ncc3c(n2)-c2ccc(Cl)cc2C(c2ccccc2F)=NC3)cc1)N1CCN(CCN2CCOCC2)CC1 [Compound I-189, {4-[9-Chloro-7-(2-fluoro-phenyl)-5H-benzo[c]pyrimido[4,5-e]azepin-2-ylamino]-phenyl}-[4-(2-morpholin-4-yl-ethyl)-piperazin-1-yl]-methanone]
IC50: ≤ 100 nM

NC1CN(C(=O)c2ccc(Nc3ncc4c(n3)-c3ccc(Cl)cc3C(c3ccccc3F)=NC4)cc2)C1 [Compound I-192, (3-Amino-azetidin-1-yl)-{4-[9-chloro-7-(2-fluoro-phenyl)-5H-benzo[c]pyrimido[4,5-e]azepin-2-ylamino]-phenyl}-methanone]
IC50: ≤ 100 nM

CC(C)(N)C(=O)Nc1ccc(Nc2ncc3c(n2)-c2ccc(Cl)cc2C(c2c(F)cccc2F)=NC3)cc1 [Compound I-308, 2-amino-N-(4-{[9-chloro-7-(2,6-difluorophenyl)-5H-pyrimido[5,4-d][2]benzazepin-2-yl]amino}phenyl)-2-methylpropanamide]
IC50: ≤ 100 nM

COc1cccc(F)c1C1=NCc2cnc(Nc3ccc(C(=O)N4CCCC(N)C4)cc3)nc2-c2ccc(Cl)cc21 (stereo not drawn) [Compound I-262]
IC50: ≤ 100 nM

CNC1CCN(C(=O)c2cc(Nc3ncc4c(n3)-c3ccc(Cl)cc3C(c3c(F)cccc3F)=NC4)ccc2Cl)C1 (stereo not drawn) [Compound I-281, 9-chloro-N-(4-chloro-3-{[3-(methylamino)pyrrolidin-1-yl]carbonyl}phenyl)-7-(2,6-difluorophenyl)-5H-pyrimido[5,4-d][2]benzazepin-2-amine]
IC50: ≤ 100 nM

COc1cccc(F)c1C1=NCc2cnc(Nc3cccc(C(=O)N4CC(C)NC(C)C4)c3)nc2-c2ccc(Cl)cc21 (stereo not drawn) [Compound I-228, 9-chloro-N-{3-[(3,5-dimethylpiperazin-1-yl)carbonyl]phenyl}-7-(2-fluoro-6-methoxyphenyl)-5H-pyrimido[5,4-d][2]benzazepin-2-amine]
IC50: ≤ 100 nM

COc1ccccc1C1=NCc2cnc(Nc3ccc(C(=O)NCCCN4CCN(C)CC4)cc3)nc2-c2ccc(Cl)cc21 [Compound I-22, 4-[9-Chloro-7-(2-methoxy-phenyl)-5H-benzo[c]pyrimido[4,5-e]azepin-2-ylamino]-N-[3-(4-methyl-piperazin-1-yl)-propyl]-benzamide]
IC50: ≤ 100 nM

CNC1CCCN(C(=O)c2ccc(Nc3ncc4c(n3)-c3ccc(Cl)cc3C(c3c(F)cccc3OC)=NC4)cc2)C1 (stereo not drawn) [Compound I-263, 9-chloro-7-(2-fluoro-6-methoxyphenyl)-N-(4-{[3-(methylamino)piperidin-1-yl]carbonyl}phenyl)-5H-pyrimido[5,4-d][2]benzazepin-2-amine]
IC50: ≤ 100 nM

COc1ccc(Nc2ncc3c(n2)-c2ccc(Cl)cc2C(c2ccccc2Cl)=NC3)cc1OC [Compound I-73, [9-Chloro-7-(2-chloro-phenyl)-5H-benzo[c]pyrimido[4,5-e]azepin-2-yl]-(3,4-dimethoxy-phenyl)-amine]
IC50: ≤ 100 nM

COc1cccc(F)c1C1=NCc2cnc(Nc3cccc(C(=O)N4CCC(N(C)C)C4)c3)nc2-c2ccc(Cl)cc21 (stereo not drawn) [Compound I-231, 9-chloro-N-(3-{[3-(dimethylamino)pyrrolidin-1-yl]carbonyl}phenyl)-7-(2-fluoro-6-methoxyphenyl)-5H-pyrimido[5,4-d][2]benzazepin-2-amine]
IC50: ≤ 100 nM

COc1ccccc1C1=NCc2cnc(Nc3ccc(C(=O)N4CCNC(C)C4)cc3)nc2-c2ccc(Cl)cc21 (stereo not drawn) [Compound I-329, 9-chloro-7-(2-methoxyphenyl)-N-{4-[(3-methylpiperazin-1-yl)carbonyl]phenyl}-5H-pyrimido[5,4-d][2]benzazepin-2-amine]
IC50: ≤ 100 nM

CNC1CCN(C(=O)c2ccc(Nc3ncc4c(n3)-c3ccc(Cl)cc3C(c3c(F)cccc3OC)=NC4)cc2)C1 (stereo not drawn) [Compound I-199, {4-[9-Chloro-7-(2-fluoro-6-methoxy-phenyl)-5H-benzo[c]pyrimido[4,5-e]azepin-2-ylamino]-phenyl}-(3-methylamino-pyrrolidin-1-yl)-methanone]
IC50: ≤ 100 nM
